PMC11443494, “Dynamical responses predict a distal site that modulates activity in an antibiotic resistance enzyme” (Chemical Science, 2024)
Read-outs that look alike come from different tables or passages of the source.

How the values were obtained:
[1] = system: SHV-38; set-up: method as in Poirel et al [3]; details: ref Poirel et al [3]; cited from earlier work
[2] = system: SHV-1; set-up: method as in Liakopoulos et al. [2]; details: ND = no detected hydrolysis, ref Liakopoulos et al. [2]; cited from earlier work
[3] = molecular target: T1, KPC-2 (Klebsiella pneumoniae, UniProt Q9F663); test: Inhibition of nitrocefin hydrolysis (IC50), KPC-2; format: biochemical; details: wild-type KPC-2; nitrocefin 200 μM, 10 minute pre-incubation
T1 construct: made in house
T1 sequence (Q9F663 25-293 limits assumed): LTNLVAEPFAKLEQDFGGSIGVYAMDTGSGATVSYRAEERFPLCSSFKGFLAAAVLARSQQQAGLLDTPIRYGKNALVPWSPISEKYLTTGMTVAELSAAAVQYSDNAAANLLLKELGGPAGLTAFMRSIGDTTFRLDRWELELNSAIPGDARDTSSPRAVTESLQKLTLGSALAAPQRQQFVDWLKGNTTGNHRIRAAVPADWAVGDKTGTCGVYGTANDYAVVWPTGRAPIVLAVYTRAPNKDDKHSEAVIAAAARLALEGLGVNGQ
Procedure: Both inhibitors were dissolved in kinetics buffer.

[4] = molecular target: T2, KPC-2^G89D (Klebsiella pneumoniae, UniProt Q9F663, G88D); test: Inhibition of nitrocefin hydrolysis (IC50), KPC-2^G89D; format: biochemical; details: nitrocefin 200 μM, 10 minute pre-incubation of enzyme and inhibitor
T2 construct: made in house; host or cells: E. coli
T2 sequence (Q9F663 25-293 G88D): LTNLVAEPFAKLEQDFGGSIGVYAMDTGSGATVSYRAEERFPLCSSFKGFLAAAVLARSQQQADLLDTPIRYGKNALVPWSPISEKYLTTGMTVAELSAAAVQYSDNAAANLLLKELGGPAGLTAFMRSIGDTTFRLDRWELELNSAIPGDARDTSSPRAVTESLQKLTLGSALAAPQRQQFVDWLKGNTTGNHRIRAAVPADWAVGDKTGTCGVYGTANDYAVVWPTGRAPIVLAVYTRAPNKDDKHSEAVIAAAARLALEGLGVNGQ

[5] = molecular target: T2, KPC-2^G89D; test: Steady-state kinetics of β-lactam hydrolysis by KPC-2^G89D; format: biochemical; details: for Kcat / K M: KPC-2^G89D, 25 °C, standard error in parentheses; for Kcat: 10 mM HEPES pH 7.5, 150 mM NaCl, BSA; for K M: pH 7.5; for decrease in catalytic efficiency (kcat/KM): KPC-2^G89D compared to wild-type KPC-2
Procedure: (§1) Antibiotic hydrolysis was measured at 25 °C in kinetics buffer (10 mM HEPES, pH 7.5 and 150 mM NaCl, 100 μg per mL bovine […] albumin (BSA)). […] Hydrolysis was followed using Greiner half area 96-well plates and a BMG CLARIOstar Plus microplate reader. GraphPad Prism 9.3.1 (GraphPad Software, La Jolla, CA, USA; https://www.graphpad.com) was used to calculate kinetic parameters. Initial rates of antibiotic hydrolysis measured across a range of antibiotic concentrations were used to calculate steady-state parameters according to the Michaelis–Menten equation.

[6] = molecular target: T1, KPC-2; format: biochemical
Procedure: as §1

[7] = molecular target: T2, KPC-2^G89D; test: Pre-steady-state (stopped-flow tryptophan fluorescence) binding kinetics, KPC-2^G89D
Procedure: (§2) Pre-steady state kinetics were measured by mixing meropenem with KPC-2 or KPC-2^G89D (both 10 nM concentration) in an Applied Photophysics SX20 stopped-flow spectrometer connected to a photodiode array detector in kinetics buffer. Data were fitted from 0.005 to 0.3 s for both 5 repeats of each of KPC-2 : meropenem and KPC-2^G89D : meropenem. k1 and k−1 were calculated from the gradient and the y-intercept of the kobsvs. substrate concentration curves. KD is calculated using the following equation: [drawing 1]
(§3) Figure S11: Binding kinetics of meropenem calculated using pre-steady state kinetics. a) Kinetic model for binding and hydrolysis of β-lactam substrates by serine β-lactamases. KD is calculated by k-1 / k1. Normalised tryptophan fluorescence curves, averaged over 5 transients, measured from 0.005 s to 0.25 s, for meropenem binding to KPC-2 (b) and KPC-2G89D (both at 10 nM) (c) were used to calculate kobs over a range of concentrations using one phase decay curve fitting. kobs was plotted for KPC-2 (d) and KPC-2G89D (e), and a linear regression used to calculate the y-intercept (k-1) and the slope (k 1). The calculated KD values are 3.7 μM and 5.9 μM for KPC-2 and KPC-2G89D. […]

[8] = molecular target: T1, KPC-2; test: Pre-steady-state (stopped-flow tryptophan fluorescence) binding kinetics, KPC-2
Procedure: as §2, §3

[9] = system: SHV-2; set-up: method as in Liakopoulos et al. [2]; details: ref Liakopoulos et al. [2], cited from earlier work
[10] = KPC-2, 25 °C, 10 mM HEPES pH 7.5, 150 mM NaCl, BSA, standard error in parentheses
[11] = KPC-2, 25 °C, pH 7.5, standard error in parentheses

CC(=O)OCC1=C(C(=O)O)N2C(=O)[C@@H](NC(=O)Cc3cccs3)[C@H]2SC1 [Cephalothin]
Kcat [1]: 5 s⁻¹ | Km [1]: 100 µM | Kcat [2]: 10 s⁻¹ | Km [2]: 26 µM

O=C(NNC(=O)[C@@H]1CC[C@@H]2CN1C(=O)N2OS(=O)(=O)O)[C@@H]1CCCNC1 [Zidebactam]
IC50 [3]: 0.06 nM | IC50 [4]: 0.7 nM

CC1(C)S[C@@H]2[C@H](NC(=O)[C@H](N)c3ccccc3)C(=O)N2[C@H]1C(=O)O [Ampicillin]
Kcat [5]: 160 (5.83) s^−1 | K M [5]: 201 (36.3) μM | K M ([6]; pH 7.5): 271 (44.7) μM | Kcat ([6]; pH 7.5): 82.3 (3.92) s^−1

C[C@@H](O)[C@H]1C(=O)N2C(C(=O)O)=C(S[C@@H]3CN[C@H](C(=O)N(C)C)C3)[C@H](C)[C@H]12 [Meropenem]
Kd [7]: 5900 nM | decrease in catalytic efficiency (kcat/KM) [5]: 100 fold | Kcat [5]: 0.2 (1 × 10^−2) s^−1 | K M [5]: 7.9 (1.57) μM | Kcat [6, 10]: 21.5 (0.12) s^−1 | K M [6, 11]: 7.1 (1.01) μM | Kd [8]: 3700 nM

CC1(C)S[C@@H]2[C@H](NC(=O)Cc3ccccc3)C(=O)N2[C@H]1C(=O)O [Benzylpenicillin]
Kcat [1]: 100 s⁻¹ | Km [1]: 13 µM | Kcat [2]: 455 s⁻¹ | Km [2]: 20 µM | Km ([9]; ND = no detected hydrolysis): 3.8 µM | Vmax [9]: 100 µM/min

CC(C)(O/N=C(\C(=O)N[C@@H]1C(=O)N2C(C(=O)[O-])=C(C[n+]3ccccc3)CS[C@H]12)c1csc(N)n1)C(=O)O [Ceftazidime]
Kcat [1]: 110 s⁻¹ | Km [1]: 3800 µM | Km ([9]; ND = no detected hydrolysis): 24 µM | Vmax [9]: 6.5 µM/min

C[C@@H](O)[C@H]1C(=O)N2C(C(=O)O)=C(SCCN=CN)C[C@H]12 [Imipenem]
Kcat [1]: 0.01 s⁻¹ | Km [1]: 24 µM | decrease in catalytic efficiency (kcat/KM) [5]: 10 fold | Kcat [5]: 2.8 (0.12) s^−1 | K M [5]: 68.9 (10.2) μM | Kcat [6, 10]: 22 (0.43) s^−1 | K M [6, 11]: 72 (3.2) μM

CO/N=C(\C(=O)N[C@@H]1C(=O)N2C(C(=O)O)=C(COC(C)=O)CS[C@H]12)c1csc(N)n1 [Cefotaxime]
Kcat [1]: 1 s⁻¹ | Km [1]: 800 µM | Kcat ([9]; ND = no detected hydrolysis): 11 s⁻¹ | Km ([9]; ND = no detected hydrolysis): 18 µM | Vmax [9]: 70 µM/min
